Values quoted from earlier work, collected in US8680143B2, “Orally active curcuminoid compounds” (Laila Pharmaceuticals Pvt. Ltd., priority 2008, dated 2014).

## O=C(C=Cc1ccc(O)c(O)c1)CC(=O)C=Cc1ccc(O)c(O)c1 [Bis-O-demethylcurcumin, 1,7-bis(3,4-dihydroxyphenyl)-1,6-heptadiene-3,5-dione]
  oral bis-O-demethylcurcumin that enters the plasma: less than 1%
